Ten molecules from patent publication US9718828B2 (MERCK SHARP & DOHME CORP., priority 2011, dated 2017) can be followed below.

SMILES strings stand for the structures. Where a name gives a salt, the structure may show the parent alone.

Sequence of Btk enzyme (His-Btk) (Q06187 whole entry): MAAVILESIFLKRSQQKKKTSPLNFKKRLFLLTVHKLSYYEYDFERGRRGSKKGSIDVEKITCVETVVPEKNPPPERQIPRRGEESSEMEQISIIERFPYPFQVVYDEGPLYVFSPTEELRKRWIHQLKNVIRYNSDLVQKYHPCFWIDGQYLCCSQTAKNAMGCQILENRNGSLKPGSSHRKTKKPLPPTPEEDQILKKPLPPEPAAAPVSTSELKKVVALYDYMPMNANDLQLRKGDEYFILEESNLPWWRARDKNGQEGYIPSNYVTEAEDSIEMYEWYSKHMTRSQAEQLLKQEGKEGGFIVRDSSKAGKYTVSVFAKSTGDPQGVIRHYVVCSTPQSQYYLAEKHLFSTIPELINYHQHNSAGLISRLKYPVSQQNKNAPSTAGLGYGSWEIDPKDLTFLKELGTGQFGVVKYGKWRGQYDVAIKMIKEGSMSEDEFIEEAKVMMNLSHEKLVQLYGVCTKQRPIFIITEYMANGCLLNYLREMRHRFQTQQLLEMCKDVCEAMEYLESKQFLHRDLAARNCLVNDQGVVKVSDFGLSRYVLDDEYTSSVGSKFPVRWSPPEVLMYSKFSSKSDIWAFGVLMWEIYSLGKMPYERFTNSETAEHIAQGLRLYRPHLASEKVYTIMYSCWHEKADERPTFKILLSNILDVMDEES

One assay concerns the target Btk enzyme (His-Btk) (Homo sapiens (Human), UniProt Q06187). Kind of assay: Btk enzyme activity, IMAP fluorescence polarization assay (Assay Method A).
Details: not given
As for `CCc1cnc(NC(=O)c2ccc(-c3nc([C@H]4CC[C@@H](OC)CC4)n4ccnc(N)c34)cc2)s1` [Example 39, 4-(8-amino-3-((cis)-4-methoxycyclohexyl)imidazo [1,5-a]pyrazin-1-yl)-N-(5-ethylthiazol-2-yl)benzamide], the EC50 fell in the range of 10 to 100 nM.
`Nc1nccn2c(C3CC34CCN(C(=O)CO)CC4)nc(-c3ccc(C(=O)Nc4ccccn4)cc3)c12` (stereo not shown) [Example 152, 4-(8-amino-3-(6-(2-hydroxyacetyl)-6-azaspiro[2.5]octan-1-yl)imidazo[1,5-a]pyrazin-1-yl)-N-(pyridin-2-yl)benzamide] yielded an EC50 of 100 to 1000 nM.
Turning to `COCCOCCC(=O)N1CCC[C@@H](c2nc(-c3ccc(C(=O)Nc4cc(C(F)(F)F)ccn4)cc3)c3c(N)nccn23)C1` [Example 68, (R)-4-(8-amino-3-(1-(3-(2-methoxyethoxy)propanoyl)piperidin-3-yl)imidazo[1,5-a]pyrazin-1-yl)-N-(4-(trifluoromethyl)pyridin-2-yl)benzamide], the EC50 was < 10 nM.

Still in this assay, the particulars now being: read-out: EC50 Btk activity values - Assay Method A; IMAP-FP, 60 min pre-incubation, 5 μM ATP.
On to `Nc1nccn2c1c(-c1ccc(C(=O)Nc3nc4c(s3)CNCC4)cc1)nc2[C@H]1CC[C@H](O)CC1` [Example 17, 4-(8-amino-3-((trans)-4-hydroxycyclohexyl)imidazo[1,5-a]pyrazin-1-yl)-N-(4,5,6,7-tetrahydrothiazolo[5,4-c]pyridin-2-yl)benzamide], for which the EC50 is ≥ 1000 nM.

Staying with this assay, now noted: read-out: EC50 Btk activity values - Assay Method A; IMAP-FP, 60 min pre-incubation, 5 μM ATP; class 100-1000 is given as ≧100 nM-<1 μM.
`Nc1nccn2c([C@@H]3CCC[C@@H](NC(=O)C4CC4)C3)nc(-c3ccc(C(=O)Nc4cc(C(F)(F)F)ccn4)cc3)c12` (relative stereo) [Example 164, 4-(8-amino-3-((trans)-3-(cyclopropanecarboxamido)cyclohexyl)imidazo[1,5-a]pyrazin-1-yl)-N-(4-(trifluoromethyl)pyridin-2-yl)benzamide]: the EC50 was < 10 nM.
For the molecule `CC(C)(F)C(=O)N[C@@H]1CCC[C@@H](c2nc(-c3ccc(C(=O)Nc4cc(C(F)(F)F)ccn4)cc3)c3c(N)nccn23)C1` (relative stereo) [Example 163, 4-(8-amino-3-((trans)-3-(2-fluoro-2-methylpropanamido)cyclohexyl)imidazo[1,5-a]pyrazin-1-yl)-N-(4-(trifluoromethyl)pyridin-2-yl)benzamide], the EC50 is < 10 nM.
With `CCNC(=O)N1CCC[C@@H](c2nc(-c3ccc(C(=O)Nc4cc(C(F)(F)F)ccn4)cc3)c3c(N)ncnn23)C1` [Example 256, (R)-3-(4-amino-5-(4-(4-(trifluoromethyl)pyridin-2-ylcarbamoyl)phenyl)imidazo[1,5-f][1,2,4]triazin-7-yl)-N-ethylpiperidine-1-carboxamide], the EC50 was < 10 nM.
In the case of `Nc1nccn2c(N3CCC[C@@H](NC(=O)C4CC4)C3)nc(-c3ccc(C(=O)Nc4cc(C(F)(F)F)ccn4)cc3)c12` [Example 220, (R)-4-(8-amino-3-(3-(cyclopropanecarboxamido)piperidin-1-yl)imidazo[1,5-a]pyrazin-1-yl)-N-(4-(trifluoromethyl)pyridin-2-yl)benzamide], the EC50 is < 10 nM.
On the same count and under the same terms, the value for `CC(C)C(=O)N[C@@H]1CCC[C@@H](c2nc(-c3ccc(C(=O)Nc4cc(C(F)(F)F)ccn4)cc3)c3c(N)nccn23)C1` (relative stereo) [Example 167, 4-(8-amino-3-((trans)-3-isobutyramidocyclohexyl)imidazo [1,5-a]pyrazin-1-yl)-N-(4-(trifluoromethyl)pyridin-2-yl)benzamide] was < 10 nM; that for `COCCC(=O)N1C[C@H](c2nc(-c3ccc(C(=O)Nc4cc(C5CC5)ccn4)cc3)c3c(N)nccn23)CC[C@@H]1C` (relative stereo) [Example 183, 4-(8-amino-3-((cis)-1-(3-methoxypropanoyl)-6-methylpiperidin-3-yl)imidazo[1,5-a]pyrazin-1-yl)-N-(4-cyclopropylpyridin-2-yl)benzamide, TFA salt] was < 10 nM.
